Source: patent US20140314857A1, “FORMULATIONS FOR ENHANCED BIOAVAILABILITY OF ZANAMIVIR” (priority 2012, published 2014)

Test system: Caco-2 cell monolayers
Test: Initial screening of permeability enhancers with peramivir across Caco-2 cell monolayers
Conditions: with glycerol or Capmul MCM L8 as enhancer; results not shown

With CCC(CC)[C@H](NC(C)=O)[C@@H]1[C@H](O)[C@@H](C(=O)O)C[C@H]1N=C(N)N [peramivir] the “drug transport across Caco-2 cell monolayers” value was “substantially increased drug transport”.
